Structures are written as SMILES.

The EC90 is the concentration at which the effect reaches the 90% level.

For the first experiment, the system named is HCV replicon cells. Briefly: Cell-based HCV replicon assay (replicon RNA level by real time PCR, Taqman). Particulars: Hepatitis C virus, 72 h, HCV replicon cells, harvested day 3, replicon RNA by real time PCR; given as number; read-out: EC90 (μM) range. The essentials:
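HCV replicon cells treated 3 days with 10 serial 2-fold compound dilutions (top 25 μM to 1 μM; 0.5% DMSO, 10% FBS). Replicon RNA quantified by multiplex Taqman RT-PCR (NS5B amplicon, GAPDH control); EC50 and EC90 = concentrations giving ΔCT of 1 and 3.2 over baseline.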
A general note: A replicon is a self-replicating genome or part of one, used to study replication in cells.
For `CCOc1cc2cc(-c3c(C)nc(NCC4CC4)nc3N[C@@H]3C[C@H](CO)[C@@H](O)[C@H]3O)oc2c(C)n1` [Example 30], the EC90 came out at 0.14 µM.

With `CCOc1cc2cc(-c3c(C)nc(NCC(C)(C)C)nc3N[C@@H]3C[C@H](CO)[C@@H](O)[C@H]3O)oc2c(C)n1` [Example 27], the 90% effect concentration (EC90) came out at 0.35 µM.

Staying with this experiment, now noted: Hepatitis C virus, 72 h, HCV replicon cells, harvested day 3, replicon RNA by real time PCR; reported as range class; read-out: EC90 (μM) range.
For `CN(C)c1nc(N[C@@H]2C[C@H](CO)[C@@H](O)[C@H]2O)c(-c2nc3ccccc3s2)c(-c2ccccc2)n1` [Example 414], the EC90 was above 5 µM.

As for `CCOc1cc2cc(-c3c(Cl)nc(NCC(F)(F)F)nc3N[C@@H]3C[C@H](CO)[C@@H](O)[C@H]3O)oc2c(C)n1` [Example 20], the EC90 is below 0.5 µM.

Turning to `Nc1nc(Cl)c(-c2cc3cc(F)ccc3o2)c(N[C@@H]2C[C@H](CO)[C@@H](O)[C@H]2O)n1` [Example 164], the 90% effect concentration (EC90) was above 5 µM.

In the case of `CNc1nc(Cl)c(-c2nc3ccccc3s2)c(N(C)[C@@H]2C[C@H](CO)[C@@H](O)[C@H]2O)n1` [Example 404], the EC90 is above 5 µM.

Turning to `Nc1nc(Cl)c(-c2cccs2)c(N[C@@H]2C[C@H](CO)[C@@H](O)[C@H]2O)n1` [Example 153], the EC90 is above 5 µM.

As for `CN(C)C(=O)c1ccc2oc(-c3c(Cl)nc(N)nc3N[C@@H]3C[C@H](CO)[C@@H](O)[C@H]3O)cc2c1` [Example 168], the EC90 is above 5 µM.

As for `Nc1nc(Cl)c(-c2ccc(Oc3ccccc3)cc2)c(N[C@@H]2C[C@H](CO)[C@@H](O)[C@H]2O)n1` [Example 101], the EC90 was above 5 µM.

The experiment is the same for the next values; noted with them: Hepatitis C virus, 72 h, HCV replicon cells, harvested on day 3, replicon RNA by real time PCR; calculated EC90 reported as range class; read-out: EC90 (μM) range.
For the compound `COc1cccc(CNc2nc(C)c(-c3nc4ccccc4s3)c(N[C@@H]3C[C@H](CO)[C@H]4OC(C)(C)O[C@H]43)n2)c1` [Example 483], the EC90 was 0.5 to 5 µM.

Turning to `Cc1nc(NCCNS(C)(=O)=O)nc(N[C@@H]2C[C@H](CO)[C@@H](O)[C@H]2O)c1-c1nc2ccccc2s1` [Example 258], the EC90 was 0.5 to 5 µM.

Consider `OC[C@H]1C[C@@H](Nc2nc(NCc3ccccc3)nc(Cl)c2-c2nc3ccccc3s2)[C@H](O)[C@@H]1O` [Example 430], for which the EC90 was below 0.5 µM.

As for `CCc1cc2cc(-c3c(Cl)nc(NCC4CC4)nc3N[C@@H]3C[C@H](CO)[C@@H](O)[C@H]3O)oc2cn1` [Example 503], the EC90 was below 0.5 µM.

On to `COCCNc1nc(C)c(-c2cc3cc(C(F)(F)F)ncc3o2)c(N[C@@H]2C[C@H](CO)[C@H]3OC(C)(C)O[C@H]32)n1` [Example 135], for which the EC90 was above 5 µM.

As to `CCc1cc2cc(-c3c(C)nc(NCc4ccccn4)nc3N[C@@H]3C[C@H](CO)[C@H]4OC(C)(C)O[C@H]43)oc2cn1` [Example 343], the concentration for an effect of 90% (EC90) was above 5 µM.

Take `CC(C)(C)Nc1nc(Cl)c(-c2nc3ccccc3s2)c(N[C@@H]2C[C@H](CO)[C@@H](O)[C@H]2O)n1` [Example 428]: the EC90 is below 0.5 µM.

For the compound `Cc1nc(NCCNS(C)(=O)=O)nc(N[C@@H]2C[C@H](CO)[C@H]3OC(C)(C)O[C@H]32)c1-c1nc2ccccc2s1` [Example 257], the EC90 was below 0.5 µM.

In the case of `Cc1nc(NCC2CC2)nc(N[C@@H]2C[C@H](CO)[C@H]3OC(C)(C)O[C@H]32)c1-c1cc2cc(C(F)(F)F)ncc2o1` [Example 141], the EC90 is 0.5 to 5 µM.

As for `Cc1nc(NCc2cccs2)nc(N[C@@H]2CC[C@H]3OC4(CCCCC4)O[C@@H]23)c1-c1nc2ccccc2s1` [Example 334], the EC90 is above 5 µM.

Regarding `Cc1nc(NCc2cc3ccccc3s2)nc(N[C@@H]2C[C@H](CO)[C@@H](O)[C@H]2O)c1-c1nc2ccccc2s1` [Example 478], the EC90 was below 0.5 µM.

For the compound `CCCCNc1nc(Cl)c(-c2nc3ccccc3s2)c(N[C@@H]2C[C@H](CO)[C@@H](O)[C@H]2O)n1` [Example 432], the EC90 was below 0.5 µM.

As for `Cc1ccccc1CNc1nc(C)c(-c2nc3ccccc3s2)c(N[C@@H]2C[C@H](CO)[C@H]3OC(C)(C)O[C@H]32)n1` [Example 487], the EC90 was above 5 µM.

Still in this experiment, the particulars now being: Hepatitis C virus, 72 h, HCV replicon cells, replicon RNA level by real time PCR (Taqman), day 3; calculated EC90; read-out: EC90 (μM) range.
Take `Cc1nc(N[C@@H](C2CC2)C(F)(F)F)nc(N[C@@H]2C[C@H](CO)[C@@H](O)[C@H]2O)c1-c1nc2ccccc2s1` [Example 2013]: the EC90 is 0.5 to 5 µM.

The same experiment, now with this note: Hepatitis C virus, 72 h, HCV replicon cells, replicon RNA level by real time PCR (Taqman), harvested on day 3; calculated EC90 reported as range class; read-out: EC90 (μM) range.
In the case of `Cc1nc(N[C@@H](C)c2ccccc2)nc(N[C@@H]2C[C@H](CO)[C@@H](O)[C@H]2O)c1-c1nc2cnccc2s1` [Example 1305], the EC90 was 0.5 to 5 µM.

On to `Cc1nc(NCC(F)(F)F)nc(N[C@@H]2C[C@H](CO)[C@@H](O)[C@@H]2O)c1-c1nc2ccccc2s1` [Example 1253], for which the EC90 is 0.5 to 5 µM.

Take `Cc1nc(NCC(F)(F)F)nc(N[C@@H]2C[C@H](CN3CCCC3)[C@@H](O)[C@H]2O)c1-c1nc2ccccc2s1` [Example 1017]: the EC90 is 0.5 to 5 µM.

In the case of `Cc1nc(NC(C)c2ccco2)nc(N[C@@H]2C[C@H](CO)[C@H]3OC(C)(C)O[C@H]32)c1-c1nc2ccccc2s1` (stereo partly drawn) [Example 1101], the EC90 was above 5 µM.

Regarding `CCOCCNc1nc(C)c(-c2nc3c(C)nccc3s2)c(N[C@@H]2C[C@H](CO)[C@@H](O)[C@H]2O)n1` [Example 535], the 90% effect concentration (EC90) is below 0.5 µM.

For `Cc1nc(NCC2CC2)nc(N[C@@H]2C[C@H](CO)[C@@H](O)[C@H]2O)c1-c1cc2cc(OCC3CCC3)nc(C)c2o1` [Example 1059], the EC90 is above 5 µM.

With `Cc1nc(NCC(C)(C)CC2CC2)nc(N[C@@H]2C[C@H](CO)[C@@H](O)[C@H]2O)c1-c1nc2cnccc2s1` [Example 1318], the EC90 was below 0.5 µM.

As for `Cc1nc(Nc2nccs2)nc(N[C@@H]2C[C@H](CO)[C@@H](O)[C@H]2O)c1-c1nc2ccccc2s1` [Example 1013], the EC90 is 0.5 to 5 µM.

As to `Cc1nc(NCC(F)(F)F)nc(N[C@@H]2C[C@H](CO)[C@@H](O)[C@H]2O)c1-c1nc2cnccc2s1` [Example 532], the concentration for an effect of 90% (EC90) is below 0.5 µM.

On to `CCOc1nc(C)cc2cc(-c3c(C)nc(NCc4cc(OC)cc(OC)c4)nc3N[C@@H]3C[C@H](CO)[C@@H](O)[C@H]3O)oc12` [Example 1248], for which the EC90 is 0.5 to 5 µM.

For the compound `COc1cccc2sc(-c3c(C)nc(NCC(F)(F)F)nc3N[C@@H]3C[C@H](C(C)O)[C@@H](O)[C@H]3O)nc12` (stereo partly drawn) [Example 1072], the EC90 is 0.5 to 5 µM.

`COCCNc1nc(C)c(-c2nc3cc(OC(F)F)c(OC(F)F)cc3s2)c(N[C@@H]2C[C@H](CO)[C@@H](O)[C@H]2O)n1` [Example 1004]: the EC90 is 0.5 to 5 µM.

Staying with this experiment, now noted: Hepatitis C virus, 72 h, HCV replicon cells, replicon RNA level by real time PCR, harvested day 3; read-out: EC90 (μM) range.
Turning to `Cc1nc(N[C@H](C)c2ccc(OC(F)(F)F)cc2)nc(N[C@@H]2C[C@H](CO)[C@@H](O)[C@H]2O)c1-c1nc2c(C)nccc2s1` [Example 1528], the EC90 is below 0.5 µM.

On to `Cc1ccccc1[C@@H](C)Nc1nc(C)c(-c2nc3c(C)nccc3s2)c(N[C@@H]2C[C@H](CO)[C@@H](O)[C@H]2O)n1` [Example 1527], for which the EC90 was below 0.5 µM.

As for `Cc1nc(NCC(F)(F)F)nc(NC[C@@H]2CC2(CO)CO)c1-c1nc2ccccc2s1` [Example 1618], the EC90 was 0.5 to 5 µM.

Consider `Cc1cccc([C@@H](C)Nc2nc(C)c(-c3nc4c(C)nccc4s3)c(N[C@@H]3C[C@H](CO)[C@@H](O)[C@H]3O)n2)c1` [Example 1525], for which the concentration for an effect of 90% (EC90) is below 0.5 µM.

With `Cc1nc(NCC2CC2)nc(N[C@@H]2CC[C@@H](O)C2O)c1-c1nc2ccccc2s1` (stereo partly drawn) [Example 1626], the EC90 is 0.5 to 5 µM.

As to `Cc1ccc([C@@H](C)Nc2cc(C)c(-c3nc4ccccc4s3)c(N[C@@H]3C[C@H](CO)[C@@H](O)[C@H]3O)n2)cc1` [Example 1619], the EC90 is above 5 µM.

Turning to `COC(=O)N(C)C[C@H]1C[C@@H](Nc2nc(NCC(F)(F)F)nc(C)c2-c2nc3ccccc3s2)[C@H](O)[C@@H]1O` [Example 1390], the EC90 is 0.5 to 5 µM.
